Laboratory results taken from PubChem BioAssay AID328 (DTP/NCI, 2004).
Where “and” joins values, the source holds several entries; their conditions need not be identical. Identical values can stand only once. Toxic doses and inconclusive results are not listed. Rule for the calls: active = survival T/C of 150% or more; inactive = T/C below 125% in these data.

Tested on: BDF1 mice, P388 leukemia ip, median survival T/C
Test: NCI In Vivo Anticancer Drug Screen. Data for tumor model P388 Leukemia (intraperitoneal) in B6D2F1 (BDF1) mice
Conditions: endpoint: median survival time, higher = longer survival
How it was run: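 Steps: implant the tumour, treat one group with compound and another with vehicle, record survival, then divide treated by control.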

[1] = dose: 50.0 mg/kg/injection, schedule: Q01DX009 (ip), vehicle: Klucel (hydroxypropylcellulose) (HPC)
[2] = dose: 100.0 mg/kg/injection, schedule: Q01DX009 (ip), vehicle: Klucel (hydroxypropylcellulose) (HPC)
[3] = dose: 100.0 mg/kg/injection, schedule: Q04DX003 (ip), vehicle: Klucel (hydroxypropylcellulose) (HPC)
[4] = dose: 200.0 mg/kg/injection, schedule: Q04DX003 (ip), vehicle: Klucel (hydroxypropylcellulose) (HPC)
[5] = dose: 100.0 mg/kg/injection, schedule: Q01DX009 (ip), vehicle: saline with Tween-80
[6] = dose: 100.0 mg/kg/injection, schedule: Q04DX003 (ip), vehicle: saline with Tween-80
[7] = dose: 200.0 mg/kg/injection, schedule: Q01DX009 (ip), vehicle: saline with Tween-80
[8] = dose: 200.0 mg/kg/injection, schedule: Q04DX003 (ip), vehicle: saline with Tween-80
[9] = dose: 400.0 mg/kg/injection, schedule: Q01DX009 (ip), vehicle: saline with Tween-80
[10] = dose: 400.0 mg/kg/injection, schedule: Q04DX003 (ip), vehicle: saline with Tween-80

Measured: T/C

ClC(c1ccccc1)C1(Br)C=c2ccccc2=C1 (stereo not given)
inactive: [1] 95 % of control | dose: 50.0 mg/kg/injection, schedule: Q04DX003 (ip), vehicle: Klucel (hydroxypropylcellulose) (HPC) 95 % of control | [2] 90 % of control | [3] 91 % of control | [4] 100 % of control

CCCCN(c1ccccc1)c1ncnc2c1cnn2C
inactive: [5] 92 % of control and 100 % of control | [6] 100 % of control and 108 % of control | [7] 107 % of control | [8] 91 % of control and 100 % of control | [9] 96 % of control and 100 % of control | [10] 95 % of control and 100 % of control

CO[C@H]1/C=C/O[C@@]2(C)Oc3c(C)c(O)c4c(O)c(c(/C=N/N5C(C)CN(Cc6ccccc6)CC5C)c(O)c4c3C2=O)NC(=O)/C(C)=C\C=C\[C@H](C)[C@H](O)[C@@H](C)[C@@H](O)[C@@H](C)[C@H](OC(C)=O)[C@@H]1C (stereo not given in full)
inactive: dose: 12.5 mg/kg/injection, schedule: Q01DX005 (ip), vehicle: Klucel (hydroxypropylcellulose) (HPC) 94 % of control | dose: 12.5 mg/kg/injection, schedule: Q01DX005 (ip), vehicle: other 97 % of control | dose: 12.5 mg/kg/injection, schedule: Q01DX005 (oral), vehicle: other 103 % of control | dose: 12.5 mg/kg/injection, schedule: Q02DX Z (oral), vehicle: Klucel (hydroxypropylcellulose) (HPC) 89 % of control | dose: 25.0 mg/kg/injection, schedule: Q01DX005 (ip), vehicle: Klucel (hydroxypropylcellulose) (HPC) 97 % of control | dose: 25.0 mg/kg/injection, schedule: Q01DX005 (ip), vehicle: other 106 % of control | dose: 25.0 mg/kg/injection, schedule: Q01DX005 (oral), vehicle: Klucel (hydroxypropylcellulose) (HPC) 104 % of control | dose: 25.0 mg/kg/injection, schedule: Q01DX005 (oral), vehicle: other 103 % of control | dose: 25.0 mg/kg/injection, schedule: Q02DX Z (ip), vehicle: Klucel (hydroxypropylcellulose) (HPC) 105 % of control | dose: 50.0 mg/kg/injection, schedule: Q01DX005 (ip), vehicle: Klucel (hydroxypropylcellulose) (HPC) 94 % of control | dose: 50.0 mg/kg/injection, schedule: Q01DX005 (ip), vehicle: other 103 % of control | dose: 50.0 mg/kg/injection, schedule: Q01DX005 (oral), vehicle: Klucel (hydroxypropylcellulose) (HPC) 104 % of control | dose: 50.0 mg/kg/injection, schedule: Q01DX005 (oral), vehicle: other 104 % of control | [1] 90 % of control | dose: 50.0 mg/kg/injection, schedule: Q02DX Z (ip), vehicle: Klucel (hydroxypropylcellulose) (HPC) 105 % of control | dose: 50.0 mg/kg/injection, schedule: Q02DX Z (oral), vehicle: Klucel (hydroxypropylcellulose) (HPC) 99 % of control | dose: 100.0 mg/kg/injection, schedule: Q01DX005 (ip), vehicle: Klucel (hydroxypropylcellulose) (HPC) 100 % of control | dose: 100.0 mg/kg/injection, schedule: Q01DX005 (ip), vehicle: other 106 % of control | dose: 100.0 mg/kg/injection, schedule: Q01DX005 (oral), vehicle: Klucel (hydroxypropylcellulose) (HPC) 105 % of control | dose: 100.0 mg/kg/injection, schedule: Q01DX005 (oral), vehicle: other 114 % of control | [2] 100 % of control | dose: 100.0 mg/kg/injection, schedule: Q02DX Z (ip), vehicle: Klucel (hydroxypropylcellulose) (HPC) 110 % of control | dose: 100.0 mg/kg/injection, schedule: Q02DX Z (oral), vehicle: Klucel (hydroxypropylcellulose) (HPC) 100 % of control | dose: 200.0 mg/kg/injection, schedule: Q01DX005 (ip), vehicle: Klucel (hydroxypropylcellulose) (HPC) 86 % of control | dose: 200.0 mg/kg/injection, schedule: Q01DX005 (ip), vehicle: other 112 % of control | dose: 200.0 mg/kg/injection, schedule: Q01DX005 (oral), vehicle: Klucel (hydroxypropylcellulose) (HPC) 105 % of control | dose: 200.0 mg/kg/injection, schedule: Q01DX009 (ip), vehicle: Klucel (hydroxypropylcellulose) (HPC) 100 % of control | dose: 200.0 mg/kg/injection, schedule: Q02DX Z (ip), vehicle: Klucel (hydroxypropylcellulose) (HPC) 110 % of control | dose: 200.0 mg/kg/injection, schedule: Q02DX Z (oral), vehicle: Klucel (hydroxypropylcellulose) (HPC) 89 % of control | dose: 400.0 mg/kg/injection, schedule: Q01DX005 (ip), vehicle: Klucel (hydroxypropylcellulose) (HPC) 97 % of control | dose: 400.0 mg/kg/injection, schedule: Q01DX005 (oral), vehicle: Klucel (hydroxypropylcellulose) (HPC) 106 % of control | dose: 400.0 mg/kg/injection, schedule: Q02DX Z (ip), vehicle: Klucel (hydroxypropylcellulose) (HPC) 116 % of control | dose: 400.0 mg/kg/injection, schedule: Q02DX Z (oral), vehicle: Klucel (hydroxypropylcellulose) (HPC) 91 % of control | dose: 800.0 mg/kg/injection, schedule: Q01DX005 (oral), vehicle: Klucel (hydroxypropylcellulose) (HPC) 104 % of control | dose: 800.0 mg/kg/injection, schedule: Q02DX Z (ip), vehicle: Klucel (hydroxypropylcellulose) (HPC) 110 % of control | dose: 1600.0 mg/kg/injection, schedule: Q01DX005 (oral), vehicle: Klucel (hydroxypropylcellulose) (HPC) 110 % of control | dose: 1600.0 mg/kg/injection, schedule: Q02DX Z (ip), vehicle: Klucel (hydroxypropylcellulose) (HPC) 109 % of control

c1ccc(C([CH2][Hg][CH2]C(c2ccccc2)c2ccccc2)c2ccccc2)cc1
inactive: dose: 100.0 mg/kg/injection, schedule: Q01DX009 (ip), vehicle: other 100 % of control | [3] 100 % of control | dose: 200.0 mg/kg/injection, schedule: Q01DX009 (ip), vehicle: other 104 % of control | [4] 116 % of control | dose: 400.0 mg/kg/injection, schedule: Q01DX009 (ip), vehicle: other 114 % of control | dose: 400.0 mg/kg/injection, schedule: Q04DX003 (ip), vehicle: Klucel (hydroxypropylcellulose) (HPC) 100 % of control

COc1cc(/C=N\Nc2ccccc2[N+](=O)[O-])cc(OC)c1OC
inactive: [5] 95 % of control | [7] 104 % of control | [9] 104 % of control

CC1=C(O)/C(=C/C(C)CCC/C(C)=C/CC/C(C)=C/CCc2ccoc2)OC1=O (stereo not given)
inactive: dose: 0.31 mg/kg/injection, schedule: Q01DX009 (ip), vehicle: saline with Tween-80 100 % of control | dose: 0.62 mg/kg/injection, schedule: Q01DX009 (ip), vehicle: saline with Tween-80 104 % of control | dose: 2.5 mg/kg/injection, schedule: Q01DX009 (ip), vehicle: saline with Tween-80 98 % of control | dose: 5.0 mg/kg/injection, schedule: Q01DX009 (ip), vehicle: saline with Tween-80 90 % of control

Cc1nc(N)c(Cl)nc1C
inactive: dose: 50.0 mg/kg/injection, schedule: Q04DX003 (ip), vehicle: saline with Tween-80 102 % of control and 104 % of control | [6] 103 % of control | dose: 150.0 mg/kg/injection, schedule: Q04DX003 (ip), vehicle: saline with Tween-80 103 % of control | [8] 95 % of control and 104 % of control | [10] 104 % of control

CC(C)CCCCCCCCOC(=O)c1ccccc1C(=O)OCCCCCCCCC(C)C
inactive: [6] 109 % of control | [8] 109 % of control | [10] 104 % of control

O=C1Nc2ccccc2S/C1=C\c1ccc(C(F)(F)F)cc1
inactive: dose: 50.0 mg/kg/injection, schedule: Q01DX009 (ip), vehicle: saline with Tween-80 115 % of control | [5] 100 % of control | [7] 110 % of control

C[N+](C)(Cn1ncc2cc([N+](=O)[O-])ccc21)Cn1ncc2cc([N+](=O)[O-])ccc21
inactive: [6] 113 % of control | [8] 104 % of control

COc1cc(OC)cc(OC)c1
inactive: dose: 40.0 mg/kg/injection, schedule: Q01DX009 (ip), vehicle: Klucel (hydroxypropylcellulose) (HPC) 108 % of control | dose: 80.0 mg/kg/injection, schedule: Q01DX009 (ip), vehicle: Klucel (hydroxypropylcellulose) (HPC) 100 % of control | dose: 160.0 mg/kg/injection, schedule: Q01DX009 (ip), vehicle: Klucel (hydroxypropylcellulose) (HPC) 106 % of control

c1ccc(-c2c(-c3ccccc3)c(-c3ccccc3)c(-c3ccccc3)c(-c3ccccc3)c2-c2ccccc2)cc1
inactive: dose: 6.25 mg/kg/injection, schedule: Q01DX009 (ip), vehicle: water 93 % of control | dose: 12.5 mg/kg/injection, schedule: Q01DX009 (ip), vehicle: water 115 % of control | dose: 12.5 mg/kg/injection, schedule: Q04DX003 (ip), vehicle: water 106 % of control | dose: 25.0 mg/kg/injection, schedule: Q04DX003 (ip), vehicle: water 106 % of control and 108 % of control | dose: 50.0 mg/kg/injection, schedule: Q01DX009 (ip), vehicle: water 90 % of control | dose: 50.0 mg/kg/injection, schedule: Q04DX003 (ip), vehicle: water 100 % of control and 109 % of control | dose: 100.0 mg/kg/injection, schedule: Q01DX009 (ip), vehicle: water 89 % of control | dose: 100.0 mg/kg/injection, schedule: Q04DX003 (ip), vehicle: water 88 % of control and 97 % of control
